The text below walks through data of ChEMBL document CHEMBL1201862, “PubChem BioAssay data set” (2004).

Among the test systems are IGROV-1; LXFL 529; 786-0; TK-10; KM12; OVCAR-3; OVCAR-4; NCI-H522; COLO 205; SN12C; UACC-257; NCI-H23; SNB-19; ACHN; HCT-116; CCRF-CEM; OVCAR-8.
Assay in all cases: growth of human tumour cells (NCI), 48 h

Structures are written as SMILES.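 Each compound was tested at five concentrations against cells in 96-well plates for 48 hours. GI50: concentration for 50% inhibition of growth.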 Activity calls are given as the source filed them. Rule as the data show it: active = GI50 up to about 1.1 µM and inactive = higher. Where only a bound is given, the exact number is not on record here.

Take `Cc1ccccc1NC(=O)C(=O)CC(=O)c1sc(-n2nc(-c3ccccc3)cc2-c2ccccc2)nc1C`: the GI50 with IGROV-1, in the assay with LXFL 529, in the assay with 786-0, in the assay on TK-10, in the assay with KM12 and in the assay with OVCAR-3 was > 100 µM (inactive) each time. In addition, the GI50 in the assay with OVCAR-4, in the assay on NCI-H522, with COLO 205, in the assay on SN12C, with UACC-257 and with NCI-H23 was > 100 µM (inactive) each time. Besides, the GI50 in the assay with SNB-19, in the assay on ACHN, with HCT-116, in the assay with CCRF-CEM and in the assay on OVCAR-8 was > 100 µM (inactive) in each case.
Regarding `CN(C)CCCOc1ccc(/C=C2/CCC/C(=C/c3ccc(OCCCN(C)C)cc3)C2=O)cc1`, the GI50 in the assay on IGROV-1 is 2.72 µM (inactive); in the assay on LXFL 529, 1.89 µM (inactive); in the assay with 786-0, 1.3 µM (inactive); with TK-10 it was 2.67 µM (inactive); in the assay with KM12, 1.32 µM (inactive); in the assay with OVCAR-3 it was 2.26 µM (inactive). Also, the GI50 in the assay with OVCAR-4 is 2.31 µM (inactive); in the assay on NCI-H522, 1.8 µM (inactive); in the assay with COLO 205, 1.73 µM (inactive); in the assay with SN12C, 1.39 µM (inactive); in the assay with UACC-257 it was 2.03 µM (inactive); in the assay on NCI-H23, 1.74 µM (inactive). The GI50 was 2.08 µM (inactive) in the assay on SNB-19; 1.99 µM (inactive) in the assay with ACHN; 1.37 µM (inactive) in the assay on HCT-116; 0.824 µM (active) in the assay with CCRF-CEM; 3.08 µM (inactive) with OVCAR-8.
Regarding `Brc1c2nc3ccccc3nc2n2ccc3ccccc3c12`, the GI50 with IGROV-1 is 47.6 µM (inactive); in the assay on LXFL 529, > 100 µM (inactive); with 786-0 it was > 100 µM (inactive); in the assay on TK-10, > 100 µM (inactive); in the assay with KM12, > 100 µM (inactive); in the assay on OVCAR-3 it was > 100 µM (inactive). In addition, the GI50 with OVCAR-4 is > 100 µM (inactive); in the assay with NCI-H522 it was 69.5 µM (inactive); with COLO 205, > 100 µM (inactive); in the assay on SN12C, > 100 µM (inactive); in the assay with UACC-257 it was > 100 µM (inactive); in the assay on NCI-H23 it was > 100 µM (inactive). In addition, the GI50 in the assay on SNB-19, with ACHN, with HCT-116, with CCRF-CEM and in the assay with OVCAR-8 was > 100 µM (inactive) in each case.
For the compound `CCCCN/C(=N\C#N)N(Cc1ccccc1)Cc1ccccc1`, the GI50 was 22.2 µM (inactive) in the assay on IGROV-1; 16.9 µM (inactive) in the assay with LXFL 529; 29.9 µM (inactive) with 786-0; 31.6 µM (inactive) in the assay with TK-10; 28.2 µM (inactive) in the assay on KM12; 23.8 µM (inactive) in the assay on OVCAR-3. The GI50 is 27.3 µM (inactive) with OVCAR-4; 15 µM (inactive) in the assay with NCI-H522; 18.4 µM (inactive) in the assay on COLO 205; 27.7 µM (inactive) with SN12C; 20.5 µM (inactive) in the assay with UACC-257; 24.6 µM (inactive) in the assay with NCI-H23. Further, the GI50 in the assay on SNB-19 is 35.7 µM (inactive); in the assay on ACHN, 29.7 µM (inactive); in the assay on HCT-116 it was 20.8 µM (inactive); with CCRF-CEM, 16.7 µM (inactive); in the assay with OVCAR-8 it was 37 µM (inactive).
Turning to `C=CCC1(CN(C)C)CC/C(=C\c2ccc3c(c2)OCO3)C1=O` (configuration not stated), the GI50 with IGROV-1 is 60.5 µM (inactive); with LXFL 529, 34.5 µM (inactive); in the assay with 786-0, 44.8 µM (inactive); with TK-10, > 100 µM (inactive); with KM12 it was 42.3 µM (inactive); in the assay with OVCAR-3, 65.3 µM (inactive). Also, the GI50 with OVCAR-4 is 67.5 µM (inactive); in the assay with NCI-H522, 17.9 µM (inactive); in the assay on COLO 205, 23.7 µM (inactive); with SN12C, > 100 µM (inactive); in the assay on UACC-257, 40.7 µM (inactive); in the assay on NCI-H23, 65.8 µM (inactive). The GI50 in the assay on SNB-19 was > 100 µM (inactive); in the assay with ACHN, 31.6 µM (inactive); with HCT-116 it was 43.6 µM (inactive); in the assay with CCRF-CEM, 29.2 µM (inactive); in the assay on OVCAR-8, 48.4 µM (inactive).
With `COC(=O)CC(NC(=O)OCc1ccccc1)C(C(C)=O)C(=O)OCc1ccccc1` (configuration not stated), the GI50 in the assay on IGROV-1 is > 31.6 µM (inactive); in the assay on LXFL 529, 5.48 µM (inactive); with 786-0, > 31.6 µM (inactive); in the assay on TK-10 it was > 31.6 µM (inactive); with KM12, > 31.6 µM (inactive); in the assay on OVCAR-3, > 31.6 µM (inactive). For the same compound, the GI50 with OVCAR-4 is > 10 µM (inactive); in the assay with NCI-H522, > 31.6 µM (inactive); in the assay with COLO 205, > 31.6 µM (inactive); with SN12C, > 31.6 µM (inactive); in the assay on UACC-257 it was > 31.6 µM (inactive); in the assay with NCI-H23 it was > 31.6 µM (inactive). Moreover, the GI50 in the assay on SNB-19 was > 10 µM (inactive); in the assay on ACHN, > 31.6 µM (inactive); in the assay with HCT-116 it was > 31.6 µM (inactive); in the assay with CCRF-CEM, > 31.6 µM (inactive); in the assay with OVCAR-8, > 31.6 µM (inactive).
